Test results from patent publication US20260130933A1, “PHARMACEUTICAL COMPOSITION FOR PREVENTION OR TREATMENT OF NEPHROPATHY AND/OR DIABETES MELLITUS, COMPRISING ENAVOGLIFLOZIN” (DAEWOONG PHARMACEUTICAL CO., LTD., priority 2022, published 2026).

Assay: Example 2: phase 3 trial, enavogliflozin 0.3 mg vs dapagliflozin 10 mg once a day for 24 weeks added to metformin in patients with type 2 diabetes (same efficacy, exploratory and safety endpoints)
Assay type: in vivo, human
Experimental: Subjects who met the inclusion/exclusion criteria were administered a placebo of the clinical trial drug under single-blind (subject blinding) conditions during a 2-week run-in period while continuing to receive metformin. […] The randomized subjects were administered two tablets of the clinical trial drug for each administration group once a day, and then visited the institution at weeks 6, 12, 18, and 24 during the 24-week administration period to conduct efficacy and safety evaluations.
• 1. Change in HbA1c at week 24 after administration of clinical trial drug compared to Visit 2 (randomization)
• 1. Change in HbA1c at each time point of weeks 6, 12, and 18 after administration of clinical trial drug compared to Visit 2 (randomization) • 2. Change in FPG at each time point of weeks 6, 12, 18, and 24 after administration of clinical trial drug compared to Visit 2 (randomization) • 3. Proportion of subjects achieving HbA1c<7% at each time point of weeks 6, 12, 18, and 24 after administration of clinical trial drug • 4. Proportion of subjects achieving HbA1c<6.5% at each time point of weeks 6, 12, 18, and 24 after administration of clinical trial drug • 5. Proportion of subjects achieving therapeutic response (HbA1c change (HbA1c at Visit 2-HbA1c at each evaluation time point)>0.5% or HbA1c<7% at each evaluation time point compared to Visit 2 (randomization)) at each time point of weeks 6, 12, 18 and 24 after administration of clinical trial drug
• 1. Change in fasting c-peptide at each time point of weeks 6, 12, 18, and 24 after administration of clinical trial drug compared to Visit 2 (randomization) • 2. Change in body weight at each time point of weeks 6, 12, 18, and 24 after administration of clinical trial drug compared to Visit 2 (randomization) • 3. Change in fasting lipid concentration (total cholesterol, LDL-C, HDL-C, and triglycerides) at each time point of weeks 6, 12, 18, and 24 after administration of clinical trial drug compared to Visit 2 (randomization) • 4. Changes in systolic or diastolic blood pressure at each time point of weeks 6, 12, 18, and 24 after administration of clinical trial drug compared to Visit 2 (randomization) • 5. Changes in β-cell function and insulin resistance measured by HOMA-β and HOMA-IR at each time point of weeks 6, 12, 18, and 24 after administration of clinical trial drug compared to Visit 2 (randomization) • 6. Changes in renal function-related indicators (UACR, UGCR) measured by UACR at each time point of weeks 6, 12, 18, and 24 after administration of clinical trial drug compared to Visit 2 (randomization) • 7. Changes in obesity-related indicators (adiponectin, leptin) at each time point of weeks 6, 12, 18, and 24 after administration of clinical trial drug compared to Visit 2 (randomization)

[1] = Week 12, mPPS1, enavogliflozin minus dapagliflozin
[2] = Week 12, mPPS2, enavogliflozin minus dapagliflozin
[3] = Week 18, PPS, enavogliflozin minus dapagliflozin

Q: For `OC[C@H]1O[C@@H](c2cc(Cc3ccc(C4CC4)cc3)c(Cl)c3c2CCO3)[C@H](O)[C@@H](O)[C@@H]1O` [Enavogliflozin, (2S,3R,4R,5S,6R)-2-(7-chloro-6 (4-cyclopropylbenzyl)-2,3-dihydrobenzofuran-4-yl)-6-(hydroxymethyl)tetrahydro-2H-pyran-3,4,5-triol], which “HDL-C, Mean (SD)” value (Week 12, mPPS1) is on record?
A: 53.08(10.89) mg/dL

Q: And the “HDL-C, Median” value (Week 12, mPPS1)?
A: 52.50 mg/dL

Q: What about the “LDL-C change from baseline, ANCOVA LS mean (SE)” value (Week 12, mPPS1) of the same molecule?
A: 1.86(1.68) mg/dL

Q: What about the “LDL-C change from baseline, Mean (SD)” value (Week 12, mPPS1) of the same molecule?
A: 0.78(16.26) mg/dL

Q: And the “LDL-C change from baseline, Median” value (Week 12, mPPS1)?
A: 1.00 mg/dL

Q: What about the “LDL-C, Mean (SD)” value (Week 12, mPPS1) of the same molecule?
A: 87.58(30.26) mg/dL

Q: What about the “LDL-C, Median” value (Week 12, mPPS1) of the same molecule?
A: 79.00 mg/dL

Q: And the “Triglycerides change from baseline, ANCOVA LS mean (SE)” value (Week 12, mPPS1)?
A: −7.53(4.80) mg/dL

Q: And the “Triglycerides change from baseline, Mean (SD)” value (Week 12, mPPS1)?
A: −5.00(57.85) mg/dL

Q: And the “Triglycerides change from baseline, Median” value (Week 12, mPPS1)?
A: 3.00 mg/dL

Q: And the “Triglycerides, Mean (SD)” value (Week 12, mPPS1)?
A: 116.23(59.46) mg/dL

Q: What about the “Triglycerides, Median” value (Week 12, mPPS1) of the same molecule?
A: 100.00 mg/dL

Q: What about the “HDL-C change from baseline, LS mean difference” value [1] of the same molecule?
A: 0.06 mg/dL

Q: What about the “LDL-C change from baseline, LS mean difference” value [1] of the same molecule?
A: 1.30 mg/dL

Q: And the “triglycerides change from baseline, LS mean difference” value [1]?
A: 2.57 mg/dL

Q: And the “Diastolic blood pressure change from baseline, ANCOVA LS mean (SE)” value (Week 12, mPPS2)?
A: −4.19 mmHg

Q: And the “Diastolic blood pressure change from baseline, Mean (SD)” value (Week 12, mPPS2)?
A: −4.33 mmHg

Q: What about the “Diastolic blood pressure change from baseline, Median” value (Week 12, mPPS2) of the same molecule?
A: −4.00 mmHg

Q: What about the “Diastolic blood pressure, Mean (SD)” value (Week 12, mPPS2) of the same molecule?
A: 72.66 mmHg

Q: What about the “Diastolic blood pressure, Median” value (Week 12, mPPS2) of the same molecule?
A: 72.00 mmHg

Q: And the “Systolic blood pressure change from baseline, ANCOVA LS mean (SE)” value (Week 12, mPPS2)?
A: −5.86(1.04) mmHg

Q: What about the “Systolic blood pressure change from baseline, Mean (SD)” value (Week 12, mPPS2) of the same molecule?
A: −6.42(9.73) mmHg

Q: What about the “Systolic blood pressure change from baseline, Median” value (Week 12, mPPS2) of the same molecule?
A: −6.00 mmHg

Q: And the “Systolic blood pressure, Mean (SD)” value (Week 12, mPPS2)?
A: 123.29(13.73) mmHg

Q: And the “Systolic blood pressure, Median” value (Week 12, mPPS2)?
A: 123.00 mmHg

Q: And the “diastolic blood pressure change from baseline, LS mean difference” value [2]?
A: 0.16 mmHg

Q: And the “systolic blood pressure change from baseline, LS mean difference” value [2]?
A: 0.26 mmHg

Q: And the Adiponectin change from baseline, ANCOVA LS mean (SE) (Week 18, PPS)?
A: 1.33 µg/mL

Q: What about the Adiponectin change from baseline, Mean (SD) (Week 18, PPS) of the same molecule?
A: 1.26 µg/mL

Q: What about the Adiponectin change from baseline, Median (Week 18, PPS) of the same molecule?
A: 1.14 µg/mL

Q: What about the Adiponectin, Mean (SD) (Week 18, PPS) of the same molecule?
A: 8.3 µg/mL

Q: What about the Adiponectin, Median (Week 18, PPS) of the same molecule?
A: 7.33 µg/mL

Q: And the “HOMA-IR change from baseline, ANCOVA LS mean (SE)” value (Week 18, PPS)?
A: −1.79

Q: What about the “HOMA-IR change from baseline, Mean (SD)” value (Week 18, PPS) of the same molecule?
A: −1.58

Q: What about the “HOMA-IR change from baseline, Median” value (Week 18, PPS) of the same molecule?
A: −0.94

Q: And the “HOMA-IR, Mean (SD)” value (Week 18, PPS)?
A: 1.86

Q: And the “HOMA-IR, Median” value (Week 18, PPS)?
A: 1.51

Q: And the “HOMA-β change from baseline, ANCOVA LS mean (SE)” value (Week 18, PPS)?
A: 10.97

Q: What about the “HOMA-β change from baseline, Mean (SD)” value (Week 18, PPS) of the same molecule?
A: 10.63

Q: What about the “HOMA-β change from baseline, Median” value (Week 18, PPS) of the same molecule?
A: 5.75

Q: And the “HOMA-β, Mean (SD)” value (Week 18, PPS)?
A: 56.39

Q: And the “HOMA-β, Median” value (Week 18, PPS)?
A: 40.45

Q: What about the “Leptin change from baseline, ANCOVA LS mean (SE)” value (Week 18, PPS) of the same molecule?
A: -2.49 ng/mL

Q: And the “Leptin change from baseline, Mean (SD)” value (Week 18, PPS)?
A: -2.50 ng/mL

Q: And the “Leptin change from baseline, Median” value (Week 18, PPS)?
A: -1.32 ng/mL

Q: What about the “Leptin, Mean (SD)” value (Week 18, PPS) of the same molecule?
A: 9.71 ng/mL

Q: And the “Leptin, Median” value (Week 18, PPS)?
A: 7.22 ng/mL

Q: What about the “UACR change from baseline, ANCOVA LS mean (SE)” value (Week 18, PPS) of the same molecule?
A: -23.05 g/kg

Q: What about the “UACR change from baseline, Mean (SD)” value (Week 18, PPS) of the same molecule?
A: -17480 mg/kg

Q: And the “UACR change from baseline, Median” value (Week 18, PPS)?
A: -0.70 g/kg

Q: And the “UACR, Mean (SD)” value (Week 18, PPS)?
A: 20320 mg/kg

Q: And the “UACR, Median” value (Week 18, PPS)?
A: 9.80 g/kg

Q: And the “UGCR change from baseline, ANCOVA LS mean (SE)” value (Week 18, PPS)?
A: 60.97 mg/mg

Q: And the “UGCR change from baseline, Mean (SD)” value (Week 18, PPS)?
A: 59.41 mg/mg

Q: What about the “UGCR change from baseline, Median” value (Week 18, PPS) of the same molecule?
A: 57.54 mg/mg

Q: And the “UGCR, Mean (SD)” value (Week 18, PPS)?
A: 60.98 mg/mg

Q: And the “UGCR, Median” value (Week 18, PPS)?
A: 58.42 mg/mg

Q: What about the “HOMA-IR change from baseline, LS mean difference” value [3] of the same molecule?
A: −0.32

Q: And the “HOMA-β change from baseline, LS mean difference” value [3]?
A: −2.53

Q: What about the “UACR change from baseline, LS mean difference” value [3] of the same molecule?
A: -10.10 g/kg

Q: And the “UGCR change from baseline, LS mean difference” value [3]?
A: 18.25 mg/mg

Q: What about the “leptin change from baseline, LS mean difference” value [3] of the same molecule?
A: -1.26 ng/mL

Q: And the “HDL-C change from baseline, ANCOVA LS mean (SE)” value (Week 18, mPPS1)?
A: 2.46(0.66) mg/dL

Q: What about the “HDL-C change from baseline, Mean (SD)” value (Week 18, mPPS1) of the same molecule?
A: 1.89(6.20) mg/dL

Q: What about the “HDL-C change from baseline, Median” value (Week 18, mPPS1) of the same molecule?
A: 2.50 mg/dL

Q: And the “HDL-C, Mean (SD)” value (Week 18, mPPS1)?
A: 53.49(11.50) mg/dL

Q: And the “HDL-C, Median” value (Week 18, mPPS1)?
A: 52.50 mg/dL

Q: What about the “LDL-C change from baseline, ANCOVA LS mean (SE)” value (Week 18, mPPS1) of the same molecule?
A: 1.42(1.86) mg/dL

Q: What about the “LDL-C change from baseline, Mean (SD)” value (Week 18, mPPS1) of the same molecule?
A: 0.50(14.20) mg/dL

Q: And the “LDL-C change from baseline, Median” value (Week 18, mPPS1)?
A: -1.00 mg/dL
